This note sets out measurements from patent US20220281899A1, “COMPOUND AND FLUORESCENTLY LABELED BIOLOGICAL SUBSTANCE USING THE SAME” (FUJIFILM Corporation, priority 2019, published 2022).

What all share (assay type): physicochemical
Data set [1] is described as follows: Evaluation of water solubility (PBS pH 7.4, UHPLC concentration of filtrate). Conditions: compound; PBS pH 7.4, 1% DMSO, 200 μM if completely dissolved. Here is the method: 5 μL of a DMSO solution having a concentration of 20 mM of the above compound (hereinafter, referred to as a sample) and 495 μL of PBS having a pH of 7.4 were added and mixed in a 1.5 mL Eppendorf tube and stirred with a multi-shaker MS300 (product name, AS ONE Corporation) at 2,000 rpm for 30 minutes. The obtained mixed solution was allowed to be left for 60 minutes with light shielding and then subjected to centrifugal precipitation (12,000 rpm, 5 minutes). For the filtrate filtered using a filter having a pore diameter of 0.20 μm, the sample concentration was measured with Nexera UHPLC [product name, manufactured by Shimadzu Corporation, column: Shim-pack XR-ODSII] (the sample concentration is 200 μM in a case where the sample is completely dissolved) and evaluated based on the following evaluation standards.
In the present test, it is determined that a compound has passed the evaluation of the water solubility in a case where the compound has a rank “B” or higher.
B: 10 μM or more and less than 100 μM
C: 1 μM or more and less than 10 μM […]
(§1) The water solubility and the fluorescence quantum of the labeled antibody were evaluated according to the same methods as those described in Example 1 except that in the evaluation of the water solubility and the fluorescence quantum yield in Example 1, the sample for measurement was changed from the compound to the labeled antibody.

Data set [2] is described as follows: Evaluation of fluorescence quantum yield (PBS solution, pH 7.4). To be noted: compound. The procedure:
A PBS solution (pH 7.4) of the above compound was evaluated according to the method described in the following reference document.
“A Guide to Recording Fluorescence Quantum Yields” (a HORIBA Scientific document, available from https://www.horiba.com/fileadmin/uploads/Scientific/Documents/Fluorescence/quantumyields trad.pdf)
In the present test, it is preferable that the fluorescence quantum yield satisfies the evaluation rank “B” or higher from the viewpoint of practicality as the fluorescent compound.
B: 0.7 or more and less than 0.9
C: 0.5 or more and less than 0.7
D: 0.3 or more and less than 0.5
F: not evaluable due to low water solubility
as §1

Data set [3] in a line: Evaluation of light resistance in aqueous solution (xenon lamp exposure, absorbance decrease). To be noted: compound; PBS pH 7.4; xenon lamp 22 mW/cm^2. The procedure:
The above compound or labeled antibody (hereinafter, referred to as a sample) was dissolved in PBS having a pH of 7.4 so that the absorbance at the absorption wavelength peak was 0.095 to 0.105. In a state of being exposed to light using a merry-go-round type light irradiator, the obtained solution was subjected to the temporal measurement of the absorbance of the absorption wavelength peak of the sample with a spectroscope (manufactured by Agilent Technologies, Inc., product name: Agilent 8453).
For the light exposure using the merry-go-round type light irradiator, a xenon lamp UXL-500D-O (product name) manufactured by Ushio, Inc. was used, and an HA-50 filter and a Y44 filter manufactured by HOYA were used as sharp cut filters (both are product names), where the light exposure intensity was 22 mW/cm^2 (in terms of 500 nm conversion).
The absorbance at the absorption peak wavelength before light exposure was set to 100% and the light exposure time until the absorbance at this absorption peak wavelength decreases by 50% (the absorbance at the absorption peak wavelength reaches 50%) was measured. The results were evaluated based on the following evaluation standards. A high evaluation rank is highly preferable since stability is kept for a long time.
B: 60 hours or more and less than 80 hours
C: 40 hours or more and less than 60 hours
D: 20 hours or more and less than 40 hours […]

Take `Cc1cc(C)n2c1C=C1C=CC(CCC(=O)O)=[N+]1[B-]2(F)F` [BODIPY FL]: the Water solubility entry in data set [1] was “C (1 μM or more and less than 10 μM)”. In addition, the Fluorescence quantum yield result in data set [2] was “B (0.7 or more and less than 0.9)”. Besides, in data set [3], the “Light resistance (light exposure time until absorbance at absorption peak reaches 50%)” value is recorded as “F (less than 10 hours)”.

As for `CC1=CC(C)=[N+]2C1=C(C)c1c(C)cc(C)n1[B-]2(F)F` [BODIPY493/503], the Water solubility result in data set [1] is “C (1 μM or more and less than 10 μM)”. Moreover, the Fluorescence quantum yield entry in data set [2] is listed as “A (0.9 or more)”. The “Light resistance (light exposure time until absorbance at absorption peak reaches 50%)” value in data set [3] is on record as “F (less than 10 hours)”.
